According to patent publication US20250326744A1, “PIPERAZINE DERIVATIVE OR SALT THEREOF, AND PHARMACEUTICAL COMPOSITION” (priority 2022, published 2025):
Structures can show the parent of a compound that is named as a salt.

Assays:
mexB (PA) strain = experiment: Combinational effect with antibacterial agent against Pseudomonas aeruginosa (Test Examples 2 and 4): mexB (PA) strain with LVFX, TC or AZT at 1/4 MIC, EC99; type: cell-based; settings: mexB (PA) strain, Test Example 4; for EC99, combinational effect with AZT, mexB (PA): combined with AZT at 1/4 MIC; for EC99, combinational effect with LVFX, mexB (PA): combined with LVFX at 1/4 MIC; for EC99, combinational effect with TC, mexB (PA): combined with TC at 1/4 MIC
Method in brief: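 EC99 denotes the minimum test-compound concentration (range 0–800 μM) that suppresses ≥99% of growth, measured by OD595, when combined with ¼ MIC levofloxacin (LVFX), tetracycline or aztreonam. The efflux-pump mutant mexB (PA), expressing mainly MexAB-OprM, was inoculated at 10^4–5 CFU/well in CAMHB for 16–20 h.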

mexY (EC) strain = experiment: Efflux ability inhibition effect on drug efflux pump MexY (Test Examples 1 and 3): proliferation (OD595) of mexY (EC) strain with EM or LVFX at 1/4 MIC, EC75; type: cell-based, Escherichia coli; settings: Table 53, Test Example 3, same manner as Test Example 1; for EC75, mexY (EC) strain, EM: combined with EM at 1/4 MIC; for EC75, mexY (EC) strain, LVFX: combined with LVFX at 1/4 MIC
Method: The efflux ability inhibition effect of the test compound on the drug efflux pump was evaluated using the bacterial proliferative ability in the presence of EM or LVFX as an index.
EM is a macrolide antibacterial agent and is a drug that is discharged outside the bacteria by MexB and MexY LVFX is a quinolone antibacterial agent and is a drug that is discharged outside the bacteria by MexB and MexY In a case where the test compound has an efflux ability inhibitory ability against the drug efflux pump, the proliferation of bacteria is suppressed by the combined use of EM or LVFX and the test compound, as compared with the case where EM or LVFX is used alone.
A mutant strain (hereinafter, referred to as an “mexB (EC) strain”) obtained by transferring the genes of the main multidrug efflux system MexAB-OprM of Pseudomonas aeruginosa described in Nature, 2013, Vol. 500, pp. 102 to 106 as a plasmid into Escherichia coli strains in which the acrB and tolC genes of the multidrug efflux system AcrAB-TolC were deleted as described in Journal of Infection and Chemotherapy 2008, Vol. 14, pp. 23 to 29, and a gene transfer strain (hereinafter, referred to as an “mexY (EC) strain”) of another main multidrug efflux system MexXY-OprM of Pseudomonas aeruginosa were used for the evaluation of test compounds.
In the mexB (EC) strain, an expression level of MexB of the drug efflux pump is accelerated, and in the mexY (EC) strain, an expression level of MexY of the drug efflux pump is accelerated.
For culturing each Escherichia coli strain, a 96-well plate (amount of culture medium per well: 100 μL) was used and Luria-Bertani broth (LB) culture medium was used. The inoculation amount of the bacteria was set to 10^4 to 5 CFU/well.
The mexB (EC) strain and the mexY (EC) strain were cultured for 16 to 20 hours in a culture medium to which EM or LVFX and test compounds at various concentrations (0 to 800 μM) were added, and the proliferation of the bacterial strains was evaluated by optical turbidity at 595 nm (OD595). The concentration of the antibacterial agents (EM and LVFX) in the culture medium were each set to ¼ of the minimum inhibitory concentration (MIC) (hereinafter, referred to as ¼ MIC) of the single antibacterial agent.
The proliferation of bacteria in a case where the antibacterial agent was added at the concentration of ¼ MIC in a case where the test compound was not added was measured, and compared with the proliferation of bacteria in a case where the test compound was contained, and the lowest concentration of the test compound at which the proliferation was inhibited by 75% or more was defined as the drug efflux pump inhibitory ability of the test compound as 75% inhibitory effect concentration (EC75).
The drug efflux pump inhibitory ability of each test compound in a case of being used in combination with the antibacterial agent against the mexB (EC) strain and the mexY (EC) strain was evaluated as follows according to the value of EC75. • S: EC75≤[…] • A: 12.5 μM<EC75≤25 μM • B: 25 μM<EC75≤100 μM • C: […]
In the same manner as in Test Example 1, the efflux ability inhibition effect of the test compound on the drug efflux pump was evaluated using the bacterial proliferation ability in the presence of EM or LVFX as an index.

S-3769 strain = experiment: Combinational effect with antibacterial agent against Pseudomonas aeruginosa (Test Examples 2 and 4): S-3769 strain with AMK or GM at 1/4 MIC, EC99; type: cell-based; settings: S-3769 strain, Test Example 4; for EC99, combinational effect with AMK, S-3769 strain: combined with AMK at 1/4 MIC; for EC99, combinational effect with GM, S-3769 strain: combined with GM at 1/4 MIC
Method in brief: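 EC99, the lowest test-compound concentration inhibiting growth by ≥99% (OD595), was measured with aminoglycoside AMK or GM held at ¼ MIC. Strain S-3769, a MexY-overexpressing clinical isolate, was cultured in CAMHB at 10^4 to 5 CFU/well for 16–20 h; compound range 0–800 μM.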

Compound	EC99, combinational effect with AZT, mexB (PA) (mexB (PA) strain)	EC99, combinational effect with LVFX, mexB (PA) (mexB (PA) strain)	EC99, combinational effect with TC, mexB (PA) (mexB (PA) strain)	EC75, mexY (EC) strain, EM (mexY (EC) strain)	EC75, mexY (EC) strain, LVFX (mexY (EC) strain)	EC99, combinational effect with AMK, S-3769 strain (S-3769 strain)	EC99, combinational effect with GM, S-3769 strain (S-3769 strain)
CSc1ccccc1CN1CCN(C(=O)[C@H](N)C2CCN(CCc3cc(Cl)ccc3-c3cccc(Cl)c3)CC2)CC1 [Example 552, Hydrobromide of (R)-2-amino-2-(1-(2-(3′,4-dichloro-[1,1-biphenyl]-2-yl)ethyl)piperidin-4-yl)-1-(4-(2-(methylthio)benzyl)piperazin-1-yl)ethan-1-one]	S (EC99≤12.5 μM)	S (EC99≤12.5 μM)	S (EC99≤12.5 μM)	A (12.5 μM<EC75≤25 μM)	A (12.5 μM<EC75≤25 μM)	B (25 μM<EC99≤100 μM)	S (EC99≤12.5 μM)
CSc1ccccc1CN1CCN(C(=O)[C@H](N)C2CCN(CCc3cc(Cl)ccc3-c3ccccc3Cl)CC2)CC1 [Example 555, Hydrobromide of (R)-2-amino-2-(1-(2-(2′,4-dichloro-[1,1-biphenyl]-2-yl)ethyl)piperidin-4-yl)-1-(4-(2-(methylthio)benzyl)piperazin-1-yl)ethan-1-one]	B (25 μM<EC99≤100 μM)	B (25 μM<EC99≤100 μM)	A (12.5 μM<EC99≤25 μM)	A (12.5 μM<EC75≤25 μM)	A (12.5 μM<EC75≤25 μM)	B (25 μM<EC99≤100 μM)	B (25 μM<EC99≤100 μM)
CCOc1cccc(F)c1CN1CCN(C(=O)[C@H](N)C2CC[N+](CCc3cc(Cl)ccc3-c3ccccc3)(CC(=O)[O-])CC2)CC1 (stereo partly drawn) [Example 567, Hydrobromide of (R)-2-(4-(1-amino-2-(4-(2-ethoxy-6-fluorobenzyl)piperazin-1-yl)-2-oxoethyl)-1-(2-(4-chloro-[1,1-biphenyl]-2-yl)ethyl)piperidin-4-ium-1-yl)acetate]	C (100 μM<EC99)	C (100 μM<EC99)	C (100 μM<EC99)	B (25 μM<EC75≤100 μM)	B (25 μM<EC75≤100 μM)	B (25 μM<EC99≤100 μM)	C (100 μM<EC99)
CCOc1cccc(F)c1CN1CCN(C(=O)[C@H](N)C2CCN(CCc3cc(Cl)ccc3-c3c[nH]ccc3=O)CC2)CC1 [Example 577, Hydrochloride of (R)-3-(2-(2-(4-(1-amino-2-(4-(2-ethoxy-6-fluorobenzyl)piperazin-1-yl)-2-oxoethyl)piperidin-1-yl)ethyl)-4-chlorophenyl)pyridine-4(1H)-one]	B (25 μM<EC99≤100 μM)	B (25 μM<EC99≤100 μM)	B (25 μM<EC99≤100 μM)	–	A (12.5 μM<EC75≤25 μM)	C (100 μM<EC99)	C (100 μM<EC99)
CCSc1cc(F)ccc1CN1CCN(C(=O)[C@H](N)C2CCN(CCc3cc(Cl)ccc3-c3ccccc3Cl)CC2)CC1 [Example 599, Hydrochloride of (R)-2-amino-2-(1-(2-(2′,4-dichloro-[1,1-biphenyl]-2-yl)ethyl)piperidin-4-yl)-1-(4-(2-(ethylthio)-4-fluorobenzyl)piperazin-1-yl)ethan-1-one]	S (EC99≤12.5 μM)	S (EC99≤12.5 μM)	S (EC99≤12.5 μM)	A (12.5 μM<EC75≤25 μM)	–	B (25 μM<EC99≤100 μM)	S (EC99≤12.5 μM)
